The structures appear in SMILES notation.

One may read the melting point as the temperature, or range, at which the solid turns liquid.

Consider `C=C(F)CONC(=O)c1nc(-c2ccc(Cl)c(OC)c2F)cc(N)c1Cl`, for which the melting point fell in the range of 172 to 174 °C. The molecule `C/C(=C\c1ccc(CO)cc1)c1ccc2c(c1)C(C)(C)CCC2(C)C` registered a melting point of 123 to 124 °C. Under `O=C(NCc1ccc(Cl)cc1)c1cn2c3c(cc(CN4CCOCC4)cc3c1=O)OC(CN1CCCCC1)C2` (stereo unspecified) stands 213 to 215 °C. As for `O=C(Nc1cccc2c1C(=O)c1c-2n[nH]c1-c1ccc(C(=O)N2CCC(N3CCCC3)CC2)s1)NN1CCOCC1`, the melting point came out at 228 °C. For `Cc1ccc(N(Cc2ccccc2)c2ccccc2)cc1`, the melting point was 85 to 86 °C.

`Cc1cc(C#N)cc(C(=O)NC(C)C2CC2)c1NC(=O)c1cc(Br)nn1-c1ncccc1Cl` (stereo unspecified) gave a melting point of 244 to 245 °C. Next, `COC(=O)[C@@H]1CCCN1S(=O)(=O)c1ccc(Cl)c(COc2cccc3cc(C(F)(F)F)c(C)nc23)c1Cl`: 165 to 167 °C; `CCOCc1nc2c(N)nc3ccccc3c2n1CCCCS(=O)(=O)NC`: 170 to 172 °C; `Cc1ccc(-c2nc(COc3ccc(CCCCn4ccnc4)cc3)co2)o1`: 91 to 92 °C. Under `COc1cc(Nc2c(C#N)cnc3cc(-c4ccc(CN5CCOCC5)c(CN5CCOCC5)c4)ccc23)c(Cl)cc1Cl` stands 198 to 200 °C.

Turning to `O=C(C=Cc1ccc(-c2ccc(Cl)cc2)cc1)NC(Cc1ccc(OCc2ccccc2)cc1)C(=O)O` (stereo unspecified), the melting point was in the range of 253 to 254 °C. Next, `COC(=O)C[C@@H](CC(=O)C=Cc1c(-c2ccc(F)cc2)c(-c2ccccc2)c(C(=O)NCc2ccc(F)cc2)n1C(C)C)O[Si](C)(C)C(C)(C)C`: 62 to 63 °C; `CCCCCC(=O)N1C(=O)CC[C@H]1C(=O)O`: 85 to 90 °C; `O=C(NCCO)c1cccc(-c2cccc3cc(Cc4ccc(=O)[nH]c4)sc23)c1`: 134 to 137 °C.

Turning to `COc1nc2cc(Cl)c(Cl)c(N(CCO)S(C)(=O)=O)c2nc1OC`, the melting point was 240 to 242 °C. Consider `CC1(C)OC(=O)Nc2ccc(-c3cccc([N+](=O)[O-])c3)cc21`, for which the melting point was in the range of 244 to 245 °C. With `c1ccc(Nc2ccnc3[nH]cnc23)cc1`, the melting point fell in the range of 251 to 252 °C.

Regarding `Cc1ccnc(NC(=O)Nc2cccc3c2C2CCCCN2C3=O)c1` (stereo unspecified), the melting point lay in the range of 178 to 180 °C.

`Nc1cc(Cl)nc(SC/C=C/C(=O)N2CCCCC2)n1` had a melting point of 159 to 163 °C. Under `COc1ccc(-c2nccc(C)c2OC2SCC(O)C(O)C2O)cc1` (stereo unspecified) stands 101 °C. Next, `Cn1c(C(F)(F)F)c(C#N)c2cc(Cl)ccc21`: 166 to 168 °C. Next, `CCN(C(=O)c1ccc(C(=O)c2cnc3ccccn23)cc1)c1ccccc1`: 141 to 145 °C. With `CC(C)n1nc(-c2nc(S(C)(=O)=O)c(N)nc2-c2ccccc2)ccc1=O`, the melting point fell in the range of 249 to 251 °C. Regarding `CCOC(=O)c1cc2c(=O)n(-c3ccccc3)c3ccccc3n2c1`, the melting point was in the range of 256 to 259 °C. For `CC(C)(C)OC(=O)N1CCC2(CC1)C(=O)N(CC(=O)O)CN2CC1CCCCC1`, the melting point lay within 148 to 149 °C. Next, `O=C(O)c1ccc(Cl)cc1NC(=O)C(CS)Cc1ccccc1` (stereo unspecified): 134 to 136 °C. Next, `CCCCCCCCCc1cc2ccc(C(=O)O)cc2[nH]1`: 166 to 169 °C; `COCOc1ccc(C=CC(=O)c2ccc(OCc3ccccc3)cc2OC(C)=O)c(OCc2ccccc2)c1`: 94 to 96 °C; `CC(C)c1cccc(C(C)C)c1NC(=NCc1cccc(CCl)c1)Nc1c(C(C)C)cccc1C(C)C`: 122 to 124 °C. Next, `COc1ccc(Cl)cc1C1CC(=O)c2c(C)ccnc2C1` (stereo unspecified): 131 to 133 °C; `CCN(CC)CC1CCCN(CCNC(=O)N2c3ccccc3C(=O)Nc3cccnc32)C1` (stereo unspecified): 184 to 185 °C; `COc1ccc(Nc2ccn(-c3ccc(OCC(=O)O)cc3)n2)cc1`: 163 to 165 °C.

`COc1c(C(=S)NCCNC2CCCCCC2)cc(C)c2ccccc12` yielded a melting point of 140 to 141 °C. Next, `O=C1CCC(N2Cc3c(OCc4cc5cc(N6CCCCC6)ccc5o4)cccc3C2=O)C(=O)N1` (stereo unspecified): 242 to 244 °C. Next, `CC(C)(N)CCOc1ccc(Cl)nn1`: 63.5 to 65 °C; `COC(=O)CC(Sc1cc(C(C)(C)C)c(O)c(C(C)(C)C)c1)C(=O)OC` (stereo unspecified): 94 to 96 °C; `CC1=C(C#Cc2ccccc2/C=C/C(C)=C/C(=O)O)C(C)(C)CCC1`: 194 to 196 °C. Next, `CC(=O)OC1CC(OCc2ccccc2)C2COC1O2` (stereo unspecified): 85 to 87 °C; `Cn1c(CNCC2CCOC2)cc2cc(NC(=O)c3ccc(OC[C@@H]4CCCO4)cc3)ccc21` (stereo partly specified): 128 to 129 °C; `COc1c(CNS(=O)(=O)c2ccc(C)cc2)ccc2c1OCO2`: 150 to 151 °C. In turn, `O=C1CCC(c2ccc(Cl)cc2)N1c1ccccc1` (stereo unspecified) had a melting point of 82.5 to 83.5 °C. Under `Cn1nc(-c2c(Cl)cccc2Cl)nc1-c1ccc(Br)s1` stands 130 to 132 °C. Next, `O=C(O)CCCCCCNS(=O)(=O)c1ccc(Cl)cc1`: 128 to 129 °C; `O=C(NCCCCCCCCCCCCOC(=O)Oc1ccc([N+](=O)[O-])cc1)OC1CCN(C(=O)Oc2ccc(Oc3ccccc3)cc2)CC1`: 96 to 98 °C; `COc1cc2c(cc1O)C(C)(C)CC2`: 43.5 to 44.5 °C.

`O=C(CCc1ccccc1)NC(NC(=S)Nc1cccc([N+](=O)[O-])c1)C(Cl)(Cl)Cl` (stereo unspecified) showed a melting point of 171 to 173 °C.

For the molecule `C=CC1(N)CN=C(c2ccc(Cl)c(N(C)C)c2F)N=C1C(=O)OC` (stereo unspecified), the melting point was in the range of 136 to 137 °C. Next, `O=C1COc2cc(OCCCCl)ccc2N1`: 95 °C; `CN(C)Cc1cccc(C(F)(F)C(F)(F)c2ccccc2)c1CN`: 71 to 83 °C. Under `CSCc1ccc(NC(=O)/C=C/c2cnn(C)c2-c2ccc(F)cc2)cc1` stands 165 to 168 °C; under `c1ccc2c(c1)[nH]c1cnc(-c3nc(C4CC4)no3)cc12`, 256 to 257 °C.

For `CCc1n[nH]c(CC)c1Cc1cc(C#N)cc(C#N)c1`, the melting point fell in the range of 141 to 143 °C. Under `CN1CCN(c2cccc3c2C[C@H](NC(=O)c2ccc(C(=O)C(F)(F)F)cc2)CC3)CC1` stands 91 to 93 °C. Under `FC(F)(F)c1ccc2c(c1)ncn2-c1cccc(I)c1` stands 86 to 87 °C; under `NC(=O)c1cnc2n(c1=O)CCCCC2`, 234 to 235 °C. Next, `Cc1nn(C)c(C)c1N1CCN(c2c(C)c(C)c3c(c2C)CC(C)(C)O3)CC1`: 162 to 164 °C. Turning to `CCOC(=O)c1cn(-c2cc(N)c(F)cc2F)c2cc(F)c(F)cc2c1=O`, the melting point lay within 198 to 205 °C.

For the molecule `OCc1nc(Cl)cc(N2CCCC2)n1`, the melting point lay within 90 to 93 °C. `FC(F)(F)c1ccc(/C=C/C=C/[C@H]2CC[C@H](SCc3ccc(Cl)cc3)CC2)cc1`: the melting point was 142 to 144 °C. Under `CCN1CCc2ccc(C(=O)CCC(=O)N3CCC(c4ccc(Cl)cc4)CC3)cc2CC1` stands 156 to 157 °C; under `CC(C)[Si](Oc1ccc2c(c1)OCC(N1CCC(O)(c3ccccc3)CC1)C2=O)(C(C)C)C(C)C` (stereo unspecified), 132 °C. Under `COc1cccc(OC)c1CN1CC2CCCN2c2ccccc21` (stereo unspecified) stands 124 to 125 °C; under `CCCCCC(=O)Nc1ccc2c(c1)c(Cc1ccc(C(=O)O)cc1OC)cn2CC(=O)O`, 235 to 240 °C.

In the case of `CCCCCCCCCCCCCCCCCCOc1ccc(N(CC(=O)O)C(=O)OC(C)(C)C)cc1`, the melting point lay in the range of 89 to 92.5 °C. Next, `CNC(=O)Nc1ccc(CN2OCC(C)(C)C2=O)c(Cl)c1`: 227 to 229 °C; `CCCn1c(=O)c2[nH]c(-c3ccoc3)nc2n(CCC)c1=O`: 244 to 245 °C; `CC(CCc1cccc(F)c1)NCC(O)c1ccc(F)c(S(N)(=O)=O)c1` (stereo unspecified): 65 to 85 °C. Under `O=S(=O)(N[C@H]1CC[C@H](CCN2CCC(c3cccc4c3CCO4)CC2)CC1)c1ccccc1` stands 130 °C. Next, `CCNC(=O)n1ncc2ccc(OC(C)=O)c(CC3CO3)c21` (stereo unspecified): 110 to 111 °C; `C[C@H]1[C@@H](O)C(C)(C)C(=O)N1c1ccc(C#N)c(C(F)(F)F)c1`: 120 to 121 °C; `Cc1oc(-c2ccccc2)nc1CCCCCO`: 40 to 42 °C. `Cc1cccc2c1nc(-c1c(F)cccc1F)n2Cc1c(F)cccc1F` came in with a melting point of 182 to 186 °C. Under `CCOC(=O)c1cnc2ccc(OC)cc2c1O` stands above 260 °C; under `CC(C)N1OCCC(=Cc2cc(C(C)(C)C)c(O)c(C(C)(C)C)c2)C1=O`, 181 to 183 °C. Molecule `CCOC(=O)C(C)(C)Oc1ccc(C(=O)Nc2ccccc2Sc2ccccc2-c2nnn[nH]2)cc1` gave a melting point of 157 to 158 °C. In the case of `N#CCCc1cccc(-c2nc(=O)c3ccccc3s2)n1`, the melting point came out at 157 °C. Next, `COc1cc2c(cc1OCc1ccccc1)CCN(Cc1cccnc1)C2`: 78 to 79 °C. Under `COC1=CC(=O)C(OC)=C(CCCCCC2=C(OC)C(=O)C(Cl)=C(OC)C2=O)C1=O` stands 44.8 to 46 °C; under `O=C1c2ccccc2C(=O)N1CSc1cccnc1`, 123 to 124 °C. Under `COc1cc(Cn2cnc3c(-c4ccco4)ncnc32)cc(OC)c1OC` stands 195 to 196 °C.

`Cc1cccc(-c2ncc(NC(=O)OCc3ccccc3)c(=O)n2CC(=O)NC(Cc2ccccc2)C(=O)C(F)(F)F)c1` (stereo unspecified): the melting point was 128 to 132 °C. In the case of `CN(CCCN1CCC(=C2c3ccccc3C=Cc3ccccc32)CC1)c1ncccn1`, the melting point was found to be 129 °C.

Take `CCc1nnc2nc(-c3ccccc3)ccn12`: the melting point lay within 246 to 247 °C. Under `Fc1ccc2[nH]cc(C3=CCN(CC4COc5ccc6[nH]ccc6c5O4)CC3)c2c1` (stereo unspecified) stands 112 °C.

The molecule `CC(C)C1(C)N=C(c2c(C(=O)O)ccc3c2nnn3C)NC1=O` (stereo unspecified) yielded a melting point of 250 to 254 °C. The molecule `O=C(N[C@@H](Cc1ccccc1)C(=O)NCCCNC(=O)[C@H](Cc1ccccc1)NC(=O)OCc1ccccc1)OCc1ccccc1` returned a melting point of 226 to 227 °C.

Source of the values: a melting point compilation (Tetko et al.; mined from patent text by program, amines drawn as free bases though some values may be those of a salt).
